The text below walks through data of patent publication US5665555A, “Method of determining the effect of a test substance on a clone of a Centroptilum triangulifer mayfly” (priority 1993, dated 1997).

“Also recorded” adds a separate entry of the source.

This data set concerns adult C. triangulifer. Put plainly: Chlordane residue (body burden), relative composition and metabolism in adult C. triangulifer by ECNI-MS. The format is in vivo, Centroptilum triangulifer (WCC 2 clone). As to conditions: for bioaccumulation in C. triangulifer: in vivo; for relative composition of principal chlordane components or metabolites in mayflies: reared at 4.3 μg/l chlordane; for metabolism by C. triangulifer: 4.3 μg/l technical chlordane; for amount of cis- and trans-chlordane relative to the nonachlors in C. triangulifer: compared to original distribution in technical chlordane. As for the experimental part: Surviving C. triangulifer individuals from the various controls and treatment groups were collected daily as subimagos (pre-adults) from emergence cages. Most subimagos emerging from a given vessel were immediately killed, measured, dried, and weighed. The viability of eggs obtained from females that had been chronically exposed as larvae to the various control and treatment conditions was also assessed. Thus, a few subimagos from certain treatments were kept alive for 24 h (n=8, 5, 8, 6, 10, and 6 for the 4.3, 9.4, 15.4, 27.4, and 56.3 μg/l and control groups, respectively), during which time they molted to the adult stage and were allowed to oviposit into individual glass jars for assessing hatch success as described above. A few adults from the 4.3 μg/l group were frozen intact at […] for later analysis for chlordane residue by electron capture negative ionization mass spectrometry (ECNI-MS). Chiordane residue in adults reared as larvae in 0.005, 0.05, and 0.5 μg/l treatments was also determined.
Chlordane was extracted from water samples by liquid-liquid extraction in a separatory funnel with three aliquots of hexane. PCB204 (2,2',3,4,4',5,6,6'-octachlorobiphenyl) was added as a surrogate standard before extraction. Each hexane aliquot was rinsed into the plastic sample bottle after transfer of the water sample and before its addition to the separatory funnel containing the water sample to ensure removal of chlordane adsorbed on the walls. The three hexane aliquots were combined and evaporated with a rotary evaporator and then further evaporated down to 100 μl under nitrogen for the final step. Chlordane components and metabolites were quantified from the relative responses of the surrogate standard and the authentic standards of heptachlor; trans- and cis-chlordane; trans- and cis-nonachlor; and the two metabolites, heptachlor epoxide and oxychlordane (n.b. cis-nonachlor was estimated from the response factor for trans-nonachlor). Adult body burdens and water concentrations of chlordane residue were calculated by comparison of the component areas with that of the surrogate standard to correct for losses during extraction and purification.
Adult mayflies from a given replicate vessel per treatment were dried and combined in lots of five to thirteen organisms for extraction and analysis. The mayflies were ground in 0.5 ml methanol after addition of the surrogate standard PCB204 and extracted by sonication with two 10 ml aliquots of a 1:1 methanol:methylene chloride mixture. Extracts were filtered through pasteur pipettes loaded with approximately 1.0 g of Na2 SO4 and clean glass wool. Chlordane components and the surrogate standard were separated from other components in the extract on 1% deactivated silica (0.8 g) microcolumns (organochlorines were eluted with 20% methylene chloride in hexane).
Five principal chlordane components and two metabolites (heptachlor, cis- and trans-chlordane, cis- and trans-nonachlor, heptachlor epoxide, and oxychlordane) were identified and quantified by ECNI-MS, using a Hewlett Packard 5988/RTE-A mass spectrometer equipped with a Hewlett Packard 5890 GC. Instrumental conditions were: GC -0.25 mm, 30 m DB-5 column (J & W Scientific) held at 60° C. for 2 min, then ramped to 180° C. at 20°/min, to 230° C. at 2°/min, to 280° C. at 10°/min, and then held at 280° C. for 10 min; MS-CH4 pressure 0.45 torr, source temperature 100° C.

`ClC1=C(Cl)C2(Cl)C3C4OC4C(Cl)C3C1(Cl)C2(Cl)Cl` (stereo not drawn) [heptachlor epoxide]: the “bioaccumulation in C. triangulifer” value was “clear trend for the C. triangulifer mayfly to bioaccumulate” and the “relative composition of principal chlordane components or metabolites in mayflies” value (from here on “relative composition”) is given as 18±7%.
For `ClC1=C(Cl)[C@]2(Cl)[C@@H]3C[C@H](Cl)[C@@H](Cl)[C@@H]3[C@@]1(Cl)C2(Cl)Cl` (relative stereo) [trans-chlordane], the “metabolism by C. triangulifer” value is “metabolized in part to oxychlordane; also recorded: capable of metabolizing or excreting both isomers equally”; the “amount of cis- and trans-chlordane relative to the nonachlors in C. triangulifer” value is recorded as “Reduced quantities”; the “relative composition” value was found to be 5±3%.
Regarding `ClC1=C(Cl)[C@]2(Cl)[C@H]3[C@H]([C@@H](Cl)[C@]4(Cl)O[C@H]34)[C@@]1(Cl)C2(Cl)Cl` [oxychlordane], the “bioaccumulation in C. triangulifer” value is on record as “clear trend for the C. triangulifer mayfly to bioaccumulate” and the “relative composition” value was 21±13%.
Take `ClC1=C(Cl)[C@]2(Cl)[C@@H]3[C@@H](Cl)[C@H](Cl)[C@@H](Cl)[C@@H]3[C@@]1(Cl)C2(Cl)Cl` [trans-nonachlor]: the “metabolism by C. triangulifer” value is recorded as “poorly metabolized”, the “bioaccumulation in C. triangulifer” value was “clear trend for the C. triangulifer mayfly to bioaccumulate” and the “relative composition” value is given as 45±11%. Moreover, the “ratio of trans-nonachlor to cis-nonachlor in C. triangulifer” value (range) was 6.2-8.6.
As to `ClC1=C(Cl)[C@]2(Cl)[C@@H]3[C@@H](Cl)[C@@H](Cl)[C@@H](Cl)[C@@H]3[C@@]1(Cl)C2(Cl)Cl` [cis-nonachlor], the “metabolism by C. triangulifer” value is reported as “poorly metabolized”, the “bioaccumulation in C. triangulifer” value is “clear trend for the C. triangulifer mayfly to bioaccumulate” and the “relative composition” value was 6±2%.
Consider `ClC1=C(Cl)[C@]2(Cl)[C@@H]3C[C@@H](Cl)[C@@H](Cl)[C@@H]3[C@@]1(Cl)C2(Cl)Cl` (relative stereo) [cis-chlordane], for which the “metabolism by C. triangulifer” value is “metabolized in part to oxychlordane; also recorded: capable of metabolizing or excreting both isomers equally”; the “amount of cis- and trans-chlordane relative to the nonachlors in C. triangulifer” value is given as “Reduced quantities”; the “relative composition” value amounted to 4±3%.
Consider `ClC1=C(Cl)C2(Cl)C3C(Cl)C=CC3C1(Cl)C2(Cl)Cl` (stereo not drawn) [heptachlor], for which the “metabolism by C. triangulifer” value is on record as “completely metabolize”.
